In ChEMBL document CHEMBL6092194, “Development of membrane-targeting chalcone derivatives as antibacterial agents against multidrug-resistant bacteria” (Eur J Med Chem, 2024):
The source made the active and inactive calls. The calls are words filed in the database; no cut-off is given here.

How the values were obtained:
[1] = Cytotoxicity against human L02 cells assessed as cell viability at 8 microg/ml by CCK8 assay relative to control; type: toxicity, cell-based; conditions: at 8 µg/mL, read-out: Activity
[2] = test system: Staphylococcus aureus; test: Selectivity ratio of MBC for Staphylococcus aureus ATCC43300 in presence of 50% serum to MBC for Staphylococcus aureus ATCC43300 in Mueller Hinton Broth; type: functional
[3] = test system: Escherichia coli; test: Induction of morphological changes in Escherichia coli ATCC25922 assessed as rough appearance of cell membrane by scanning electron microscopic analysis; type: functional, organism-based
[4] = test system: Escherichia coli; test: Induction of morphological changes in Escherichia coli ATCC25922 assessed as disruption of cell membrane by scanning electron microscopic analysis; type: functional, organism-based
[5] = test system: Cell membrane; test: Disruption of cell membrane in Escherichia coli ATCC25922 assessed as appearance of blue fluorescence by DAPI staining based fluorescence microscopic analysis; type: subcellular
[6] = test system: Staphylococcus aureus; test: Antibacterial activity against Staphylococcus aureus ATCC43300 infected in sepsis mouse model assessed as reduction in spleen inflammation at 5 to 10 mg/kg pre-infected with bacteria for 1 hrs followed by compound administration at 12 hrs interval for 2 days by H and E staining based analysis; type: functional, organism-based; conditions: dose 5-10 mg/kg, time 2.0 day
[7] = Ratio of MBC for Staphylococcus aureus ATCC43300 measured after 6 hrs in presence of 50% plasma to MBC for Staphylococcus aureus ATCC43300 in Mueller Hinton Broth; type: functional
[8] = test system: Escherichia coli; test: Antibacterial activity against Escherichia coli ATCC25922 infected in sepsis mouse model assessed as log reduction in bacterial load in spleen at 5 mg/kg pre-infected with bacteria for 1 hrs followed by compound administration at 12 hrs interval for 2 days relative to control; type: functional; conditions: time 2 day
[9] = test system: Staphylococcus aureus; test: Bactericidal activity against Staphylococcus aureus ATCC43300 in presence of 50% blood; type: functional
[10] = test system: Cell membrane; test: Induction of outer membrane permeabilization in Escherichia coli ATCC25922 assessed as increase in fluorescence intensity incubated for 20 mins by NPN uptake assay; type: subcellular; conditions: dose 0.5-8 µg/ml
[11] = test system: Escherichia coli; test: Antibiofilm activity against Escherichia coli ATCC25922 assessed as inhibition of biofilm formation at 16 microg/ml relative to control; type: functional
[12] = test system: Cell membrane; test: Disruption of cell membrane in Escherichia coli ATCC25922 assessed as increase in intracellular ROS level by measuring fold increase in fluorescence intensity at 8 microg/ml by DCFH-DA staining based fluorescence analysis relative to blank control group; conditions: dose 8.0 µg/ml
[13] = test system: Staphylococcus aureus; test: Induction of morphological changes in Staphylococcus aureus ATCC43300 assessed as collapse of cell membrane by scanning electron microscopic analysis; type: functional, organism-based
[14] = test system: Escherichia coli; test: Antibacterial activity against Escherichia coli ATCC25922 infected in sepsis mouse model assessed as log reduction in bacterial load in kidney at 5 mg/kg pre-infected with bacteria for 1 hrs followed by compound administration at 12 hrs interval for 2 days relative to control; type: functional; conditions: time 2 day
[15] = test system: Staphylococcus aureus; test: Bactericidal activity against Staphylococcus aureus ATCC43300 assessed as log reduction in bacterial colony at 8 microg/ml measured upto 24 hrs by time-kill kinetics assay; type: functional; conditions: dose 8 µg/ml
[16] = test system: Escherichia coli; test: Ratio of MBC for Escherichia coli ATCC25922 in presence of 50% blood to MBC for Escherichia coli ATCC25922 in Mueller Hinton Broth; type: functional
[17] = test system: Escherichia coli; test: Antibacterial activity against Escherichia coli ATCC25922 infected in sepsis mouse model assessed as reduction in spleen damage at 5 to 10 mg/kg pre-infected with bacteria for 1 hrs followed by compound administration at 12 hrs interval for 2 days by H and E staining based analysis; type: functional, organism-based; conditions: dose 5-10 mg/kg, time 2.0 day
[18] = test system: Escherichia coli; test: Bactericidal activity against Escherichia coli ATCC25922 in Mueller Hinton Broth; type: functional
[19] = test system: Escherichia coli; test: Antibiofilm activity against Escherichia coli ATCC25922 assessed as inhibition of biofilm formation; type: functional, organism-based
[20] = test system: Escherichia coli; test: Bactericidal activity against Escherichia coli ATCC25922 assessed as bacterial killing at 8 times of MIC measured after 8 hrs by time-kill kinetics assay relative to control; type: functional
[21] = test system: Cell membrane; test: Disruption of cell membrane in Staphylococcus aureus ATCC43300 assessed as increase in DNA leakage; conditions: dose 1-8 µg/ml
[22] = test system: Staphylococcus aureus; test: Induction of morphological changes in Staphylococcus aureus ATCC43300 assessed as rough appearance of cell membrane by scanning electron microscopic analysis; type: functional, organism-based
[23] = test system: Klebsiella pneumoniae; test: Antibacterial activity against Klebsiella pneumoniae ATCC10031 by broth microdilution assay; type: functional
[24] = test system: Staphylococcus aureus; test: Antibacterial activity against penicillin-resistant Staphylococcus aureus ATCC31007 by broth microdilution assay; type: functional
[25] = test system: Staphylococcus aureus; test: Antibiofilm activity against Staphylococcus aureus ATCC43300 assessed as inhibition of biofilm formation; type: functional, organism-based
[26] = test system: Staphylococcus aureus; test: Antibacterial activity against Staphylococcus aureus ATCC43300 infected in sepsis mouse model assessed as reduction in spleen damage at 5 to 10 mg/kg pre-infected with bacteria for 1 hrs followed by compound administration at 12 hrs interval for 2 days by H and E staining based analysis; type: functional, organism-based; conditions: dose 5-10 mg/kg, time 2.0 day
[27] = test system: Cell membrane; test: Induction of outer membrane permeabilization in Escherichia coli ATCC25922 assessed as fold increase in fluorescence intensity at 8 microg/ml incubated for 20 mins by NPN uptake assay; type: subcellular; conditions: dose 8.0 µg/ml
[28] = test system: Cell membrane; test: Disruption of cell membrane in Staphylococcus aureus ATCC43300 assessed as increase in intracellular ROS level by DCFH-DA staining based fluorescence analysis; type: subcellular; conditions: dose 1-8 µg/ml
[29] = test system: Staphylococcus aureus; test: Bactericidal activity against Staphylococcus aureus ATCC43300 measured upto 24 hrs by time-kill kinetics assay; type: functional, organism-based; conditions: dose 1-8 µg/ml
[30] = test system: Cell membrane; test: Disruption of cell membrane in Escherichia coli ATCC25922 assessed as increase in intracellular ROS level by DCFH-DA staining based fluorescence analysis; conditions: dose 1-8 µg/ml
[31] = test system: Escherichia coli; test: Disruption of preformed biofilm in Escherichia coli ATCC25922 assessed as eradication of biofilm at 8 microg/ml relative to control; type: functional; conditions: dose 8 µg/ml
[32] = test system: Staphylococcus aureus; test: Antibacterial activity against Staphylococcus aureus ATCC43300 infected in sepsis mouse model assessed as log reduction in bacterial load in kidney at 5 mg/kg pre-infected with bacteria for 1 hrs followed by compound administration at 12 hrs interval for 2 days relative to control; type: functional; conditions: time 2 day
[33] = test system: Escherichia coli; test: Antibacterial activity against Escherichia coli ATCC25922 infected in sepsis mouse model assessed as reduction in kidney damage at 5 to 10 mg/kg pre-infected with bacteria for 1 hrs followed by compound administration at 12 hrs interval for 2 days by H and E staining based analysis; type: functional, organism-based; conditions: dose 5-10 mg/kg, time 2.0 day
[34] = test system: Escherichia coli; test: Antibiofilm activity against Escherichia coli ATCC25922 assessed as inhibition of biofilm formation at 1 microg/ml relative to control; type: functional
[35] = test system: Escherichia coli; test: Bactericidal activity against Escherichia coli ATCC25922 in presence of 50% blood; type: functional
[36] = test system: Escherichia coli; test: Antibacterial activity against Escherichia coli ATCC25922 infected in sepsis mouse model assessed as reduction in liver inflammation at 5 to 10 mg/kg pre-infected with bacteria for 1 hrs followed by compound administration at 12 hrs interval for 2 days by H and E staining based analysis; type: functional, organism-based; conditions: dose 5-10 mg/kg, time 2.0 day
[37] = test system: Cell membrane; test: Disruption of cell membrane in Escherichia coli ATCC25922 assessed as increase in protein leakage; type: subcellular; conditions: dose 1-8 µg/ml
[38] = test system: Cell membrane; test: Disruption of cell membrane in Escherichia coli ATCC25922 assessed as appearance of red fluorescence by PI staining based fluorescence microscopic analysis; type: subcellular

## CCCCCCOc1cc[n+](CCCOc2ccc(/C=C/C(=O)c3ccc(OCCC[n+]4ccc(OCCCCCC)cc4)cc3)cc2)cc1.[Br-].[Br-]
[1]
  viability at 8 microg/ml: 93.9%
[2]
  Ratio: < 2
[3]
  Activity: Active
[4]
  Activity: Active
[5]
  Activity: Active
[6]
  Activity: Active
[7]
  Ratio: <4
[8]
  log(activity): 1.92
[9]
  MIC: 16 µg/mL
[10]
  Activity: Dose-dependent-effect
[11]
  inhibition at 16 µg/mL: 50.9%
[12]
  fold change (FC): 1.5
[13]
  Activity: Active
[14]
  log(activity): 1.65
[15]
  log(activity): 7.24
[16]
  Ratio: < 2
[17]
  Activity: Active
[18]
  MBC: 8 µg/mL
[19]
  Activity: Dose-dependent-effect
[20]
  Activity: 100%
[21]
  Activity: Dose-dependent-effect
[22]
  Activity: Active
[23]
  MIC: 1 µg/mL
[24]
  MIC: 1 µg/mL
[25]
  Activity: Dose-dependent-effect
[26]
  Activity: Active
[27]
  fold change (FC): 2.5
[28]
  Activity: Dose-dependent-effect
[29]
  Activity: Dose-dependent-effect
[30]
  Activity: Dose-dependent-effect
[31]
  Activity: 41.61%
[32]
  log(activity): 0.86
[33]
  Activity: Active
[34]
  inhibition at 1 µg/mL: 12.3%
[35]
  MIC: 32 µg/mL
[36]
  Activity: Active
[37]
  Activity: Dose-dependent-effect
[38]
  Activity: Active
